Measured values from patent publication US20250051327A1, “MALT-1 MODULATORS” (EXSCIENTIA AI LIMITED, priority 2020, published 2025).

Legend:
[1] = molecular target: Recombinant human MALT-1 (amino acids 340-824) (Homo sapiens (Human), UniProt Q9UDY8); test: MALT-1 inhibition assay (fluorogenic substrate Ac-LRSR-Rh110-DP); assay type: biochemical; conditions: recombinant human MALT-1, substrate Ac-LRSR-Rh110-DP
Protocol: MALT-1 paracaspase activity was measured using the fluorogenic substrate Ac-LRSR-Rh110-DP (purchased from Biosantan GmbH). […] The reaction was initiated by addition of substrate. Final concentrations of MALT-1 and substrate were 3 nM and 10 μM respectively. Reactions were incubated in the dark for 60 minutes at 25° C. […] Percent inhibition values were calculated from relative fluorescence units at different doses and fitted to a 4-parameter logistic curve to determine IC50 values (see Table 1).

[2] = system: IL-2 secretion by human effector memory T cells (TEM); test: Effector memory T cells IL-2 release assay; assay type: cell-based; conditions: T-cell; human CD4+ effector memory T cells, CD3/CD28 bead stimulation, 24 h; read-out: CD4TC IL2 IC50
Protocol: Effector Memory T Cells IL-2 Release Assay
Test compound-mediated inhibition of NFκB signalling in T cells was assessed by quantification of the IL-2 secretion by human effector memory T cells (TEM) upon treatment and stimulation. Human TEM cells were isolated from buffy coats of healthy donors obtained from the French blood bank. First, peripheral blood mononuclear cells (PBMC) were purified from buffy coats diluted 1:1 with DPBS (Gibco, cat #14190-094) by Pancoll (PAN BIOTECH, cat #P04-60500) density gradient centrifugation at 400×g for 20 minutes. TEM cells were further enriched by negative immuno-magnetic cell sorting using a human CD4+ Effector Memory T Cell Isolation Kit (Miltenyi, cat #130-094-125) according to the manufacturer's instructions. Aliquots of 3×10E6 purified TEM cells were kept frozen in Cryo-SFM medium (PromoCell, cat #C-29912) in gas phase nitrogen until used. Cell purity was verified by flow cytometry analysis of 200 000 PFA-fixed cells previously labelled with monoclonal antibodies anti-CD4-PerCP-Cy5.5 (BD Pharmigen, cat #332772), anti-CD8-V500 (BD Biosciences, cat #561617), anti-CD14-Pacific Blue (Biolegend, cat #325616), anti-CD45 RA-FITC (Biolegend, cat #304106) and anti-CCR7-APC (in CD4+ Effector Memory T Cell Isolation Kit, Miltenyi, cat #130-094-125).
TEM cells were resuspended in complete RPMI medium composed of: RPMI 1640 (Gibco, cat #31870-025), 10% heat inactivated fetal bovine serum (Sigma, cat #F7524), 2 mM GlutaMAX (Gibco, cat #35050-038), 1 mM sodium pyruvate 100× (Gibco, cat #11360-039), 1% MEM non-essential amino acids solution (Gibco, cat #11140-035) and 100 U/mL penicillin, 100 μg/mL streptomycin (Sigma-Aldrich, cat #11074440001). 5,000 cells per well were plated onto flat clear bottom 384 well plates (Corning, cat #3770). 5,000 Dynabeads Human T-Activator CD3/CD28 (Gibco, cat #11132D) were added to each well for cell stimulation. Finally, 10 doses of test compound, originally prepared in DMSO by serial semi-log step dilution, were also added to cells in triplicate wells. Final DMSO concentration in wells was 0.1% in a total volume of 100 μL complete medium. Plates were incubated for 24 h at 37° C. in 5% CO2 atmosphere. After incubation, cell suspensions were centrifuged at 400×g and culture supernatants were recovered and stored at −80° C. Cell viability was assessed by flow cytometry after staining the cells with Fixable Viability Dye eFluor 780 (Invitrogen, cat #65-0865-14). IL-2 levels were determined in cell supernatants using an HTRF human IL-2 detection kit (Cisbio, cat #62HIL02PEH). IL-2 data at the different compound doses were fitted to a 4-parameter logistic curve to determine IC50 values, corresponding to the compound concentration leading to 50% reduction of the maximal IL-2 levels observed in each experiment. Viability data were analysed similarly to exclude cytotoxicity as a cause of IL-2 decrease (see Table 1).

Sequence of Recombinant human MALT-1 (amino acids 340-824) (Q9UDY8 340-824): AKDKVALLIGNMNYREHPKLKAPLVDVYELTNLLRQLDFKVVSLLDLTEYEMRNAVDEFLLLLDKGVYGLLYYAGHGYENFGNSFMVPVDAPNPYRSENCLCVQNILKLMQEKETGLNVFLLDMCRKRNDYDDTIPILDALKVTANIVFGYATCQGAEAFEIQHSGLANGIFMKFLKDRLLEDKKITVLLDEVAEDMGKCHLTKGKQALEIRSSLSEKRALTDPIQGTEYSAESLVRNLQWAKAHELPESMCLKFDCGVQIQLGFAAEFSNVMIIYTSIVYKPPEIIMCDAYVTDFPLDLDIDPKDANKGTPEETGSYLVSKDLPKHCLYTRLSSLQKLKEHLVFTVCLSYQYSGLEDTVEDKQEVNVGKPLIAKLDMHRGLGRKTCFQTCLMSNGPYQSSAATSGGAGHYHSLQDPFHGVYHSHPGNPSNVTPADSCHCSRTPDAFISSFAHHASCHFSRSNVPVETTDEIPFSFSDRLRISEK

Compound | IC50 [1] [nM] | IC50 [2] [nM]
CN(C(=O)[C@H]1CCS(=O)(=O)C1)[C@@H](c1ccc(N2CCCc3c2cnc2cc(Cl)nn32)cc1)C(F)(F)F (relative stereo) [CPD0022134, (3rel-R)-N-[(1S)-1-(4-{4-chloro-2,3,7,10-tetraazatricyclo[7.4.0.0^2,6]trideca-1(9),3,5,7-tetraen-10-yl}phenyl)-2,2,2-trifluoroethyl]-N-methyl-1,1-dioxo-1λ^6-thiolane-3-carboxamide] | 134 | 175
CN(C(=O)[C@H]1CC[S@+]([O-])CC1)[C@@H](c1ccc(N2CCCc3c2cnc2cc(Cl)nn32)cc1)C(F)(F)F (relative stereo) [CPD0022137, (1rel-r,4rel-r)-N-[(1S)-1-(4-{4-chloro-2,3,7,10-tetraazatricyclo[7.4.0.0^2,6]trideca-1(9),3,5,7-tetraen-10-yl}phenyl)-2,2,2-trifluoroethyl]-N-methyl-1-oxo-1λ^4-thiane-4-carboxamide] | 73 | 127
CN(C(=O)[C@H]1CC[S@@](=N)(=O)CC1)[C@@H](c1ccc(N2CC(C)(C)Cc3c2cnc2cc(Cl)nn32)cc1)C(F)(F)F [CPD0073498, (1rel s, 4rel s)-N-[(1S)-1-(4-{4-chloro-12,12-dimethyl-2,3,7,10-tetraazatricyclo[7.4.0.0^2,6]trideca-1(9),3,5,7-tetraen-10-yl}phenyl)-2,2,2-trifluoroethyl]-1-imino-N-methyl-1-oxo-1λ^6-thiane-4-carboxamide] | – | 163
COC[C@@H]1CCN(c2ccc([C@H](N(C)C(=O)C3CCS(=O)(=O)CC3)C(F)(F)F)cc2)c2cnc3cc(Cl)nn3c21 [CPD0073503, N-[(1S)-1-[4-[(13rel-R)-4-chloro-13-(methoxymethyl)-2,3,7,10-tetrazatricyclo[7.4.0.0^2,6]trideca-1(9),3,5,7-tetraen-10-yl]phenyl]-2,2,2-trifluoro-ethyl]-N-methyl-1,1-dioxo-16-thiane-4-carboxamide] | – | 209
O=C(CC1CS(=O)(=O)C1)N[C@@H](c1ccc(N2CCCc3c2cnc2cc(Cl)nn32)cc1)C(F)(F)F [CPD0073535] | – | 2070
CN(C(=O)C1CCS(=O)(=O)CC1)[C@@H](c1ccc(N2CC[C@]3(CCOC3)c3c2cnc2cc(Cl)nn32)cc1)C(F)(F)F [CPD0073763, N-[(1S)-1-[4-[(13rel-S)-4-chlorospiro[2,3,7,10-tetrazatricyclo[7.4.0.0^2,6]trideca-1(9),3,5,7-tetraene-13,3′-tetrahydrofuran]-10-yl]phenyl]-2,2,2-trifluoro-ethyl]-N-methyl-1,1-dioxo-1λ^6-thiane-4-carboxamide] | – | 109
CN(C(=O)[C@@H]1CS(=O)(=O)CC12COC2)[C@@H](c1ccc(N2CCCc3c2cnc2cc(Cl)nn32)cc1)C(F)(F)F [CPD0073974, (8rel-R)-N-[(1S)-1-(4-{4-chloro-2,3,7,10-tetraazatricyclo[7.4.0.0^2,6]trideca-1(9),3,5,7-tetraen-10-yl}phenyl)-2,2,2-trifluoroethyl]-N-methyl-6,6-dioxo-2-oxa-6λ^6-thiaspiro[3.4]octane-8-carboxamide] | – | 340
CN(C(=O)[C@H]1CS(=O)(=O)CC12COC2)[C@@H](c1ccc(N2CCCc3c2cnc2cc(Cl)nn32)cc1)C(F)(F)F [CPD0073975, (8rel-S)-N-[(1S)-1-(4-{4-chloro-2,3,7,10-tetraazatricyclo[7.4.0.0^2,6]trideca-1(9),3,5,7-tetraen-10-yl}phenyl)-2,2,2-trifluoroethyl]-N-methyl-6,6-dioxo-2-oxa-6λ^6-thiaspiro[3.4]octane-8-carboxamide] | – | 341
COc1ccc2ncc(Nc3ccc([C@H](N(C)C(=O)C4CCS(=O)(=O)CC4)C(F)(F)F)cc3)c(C3(OC)COC3)c2n1 [CPD0076414, N-methyl-1,1-dioxo-N-[(1S)-2,2,2-trifluoro-1-[4-[6-methoxy-4-(3-methoxyoxetan-3-yl)-1,5-naphthyridin-3-yllamino]phenyl]ethyl]thiane-4-carboxamide] | – | 267

More lines, in order of falling IC50 [2], values ahead:

IC50 [1] [nM] | IC50 [2] [nM] | Compound
32 | 108 | CN(C(=O)[C@H]1CC[S@@](=N)(=O)CC1)[C@@H](c1ccc(N2CCCc3c2cnc2cc(Cl)nn32)cc1)C(F)(F)F (relative stereo) [CPD0072528, (1rel-s,4rel-S)-N-[(1S)-1-(4-{4-chloro-2,3,7,10-tetraazatricyclo[7.4.0.0^2,6]trideca-1(9),3,5,7-tetraen-10-yl}phenyl)-2,2,2-trifluoroethyl]-1-imino-N-methyl-1-oxo-1λ^6-thiane-4-carboxamide]
45 | 106 | CN(C(=O)[C@H]1CC[S@@+]([O-])CC1)[C@@H](c1ccc(N2CCCc3c2cnc2cc(Cl)nn32)cc1)C(F)(F)F (relative stereo) [CPD0022136, (1rel-s,4rel-s)-N-[(1S)-1-(4-{4-chloro-2,3,7,10-tetraazatricyclo[7.4.0.0^2,6]trideca-1(9),3,5,7-tetraen-10-yl}phenyl)-2,2,2-trifluoroethyl]-N-methyl-1-oxo-1λ^4-thiane-4-carboxamide]
– | 104 | CN(C(=O)C1CCS(=O)(=O)CC1)[C@@H](c1ccc(N2CC[C@@]3(CCOC3)c3c2cnc2cc(Cl)nn32)cc1)C(F)(F)F [CPD0073762, N-[(1S)-1-[4-[(13rel-R)-4-chlorospiro[2,3,7,10-tetrazatricyclo[7.4.0.0^2,6]trideca-1(9),3,5,7-tetraene-13,3′-tetrahydrofuran]-10-yl]phenyl]-2,2,2-trifluoro-ethyl]-N-methyl-1,1-dioxo-1λ^6-thiane-4-carboxamide]
84 | 95 | CN(C(=O)[C@@H]1CCS(=O)(=O)C1)[C@@H](c1ccc(N2CCCc3c2cnc2cc(Cl)nn32)cc1)C(F)(F)F (relative stereo) [CPD0022135, (3rel-S)-N-[(1S)-1-(4-{4-chloro-2,3,7,10-tetraazatricyclo[7.4.0.0^2,6]trideca-1(9),3,5,7-tetraen-10-yl}phenyl)-2,2,2-trifluoroethyl]-N-methyl-1,1-dioxo-1λ^6-thiolane-3-carboxamide]
26 | 94 | CN(C(=O)[C@H]1CC[S@](=N)(=O)CC1)[C@@H](c1ccc(N2CCCc3c2cnc2cc(Cl)nn32)cc1)C(F)(F)F (relative stereo) [CPD0072529, (1rel-r,4rel-r)-N-[(1S)-1-(4-{4-chloro-2,3,7,10-tetraazatricyclo[7.4.0.0^2,6]trideca-1(9),3,5,7-tetraen-10-yl}phenyl)-2,2,2-trifluoroethyl]-1-imino-N-methyl-1-oxo-1λ^6-thiane-4-carboxamide]
– | 88 | COC[C@H]1CCN(c2ccc([C@H](N(C)C(=O)C3CCS(=O)(=O)CC3)C(F)(F)F)cc2)c2cnc3cc(Cl)nn3c21 [CPD0073504, N-[(1S)-1-[4-[(13rel-S)-4-chloro-13-(methoxymethyl)-2,3,7,10-tetrazatricyclo[7.4.0.0^2,6]trideca-1(9),3,5,7-tetraen-10-yl]phenyl]-2,2,2-trifluoro-ethyl]-N-methyl-1,1-dioxo-1λ^6-thiane-4-carboxamide]
– | 34 | COc1ccc2ncc(Nc3ccc([C@H](N(C)C(=O)C4CCS(=O)(=O)CC4)C(F)(F)F)cc3)c([C@H]3CCOC3)c2n1 [CPD0074039]
– | 33 | COc1ccc2ncc(Nc3ccc([C@H](N(C)C(=O)C4CCS(=O)(=O)CC4)C(F)(F)F)cc3)c([C@@H]3CCOC3)c2n1 [CPD0074040]
